{
  "source": "patent US9458194B2",
  "about": "“Compounds useful in the treatment and/or care of the skin and their cosmetic or pharmaceutical compositions” (Lubrizol Advanced Materials, Inc., priority 2013, dated 2016)",
  "system": "type-I collagen",
  "test": "Type-I collagen synthesis in human dermal fibroblasts (ELISA)",
  "assay_type": "cell-based",
  "conditions": "0.01 μg/ml, 48 hours, vs negative control",
  "procedure": "Stimulation of type-I collagen synthesis induced by cosmetic active ingredients was assessed by means of an ELISA (Enzyme-Linked Immunosorbent Assay) method.\nHuman dermal fibroblasts were trypsinized and seeded at a density of 5×10^4 cells/well in 48-well plates. After 24 hours of incubation at 37° C., 5% CO2, with a humidified atmosphere, a new medium was added with 0.01 μg/mL Ac-L-Asp-L-Val-L-Lys-L-Tyr-OH. Untreated cells were used as negative controls. The cells were incubated for an additional 48 hours at 37° C., 5% CO2, with humidified atmosphere. Subsequently, the medium was collected from each well to be analyzed by ELISA. A calibration curve with type-I collagen was prepared (Sigma) and the dilutions of this calibration curve were transferred to 96-well plates together with the mediums collected from the cells. The plates were left at 4° C. in a humid atmosphere for one night. Next the wells were washed three times with a washing solution prepared with PBS at 0.05% of Tween-20 (Sigma) and then any non-specific binding of the primary antibody with a solution of PBS at 3% BSA (sigma) was blocked. […] The reaction was stopped adding a solution of H2SO4 3 M and the absorbency reading was carried out at a wave length of 490 nm in a TECAN GENios spectrophotometric reader. […]",
  "data": [
    {"substance": "Ac-L-Asp-L-Val-L-Lys-L-Tyr-OH (Ac-DVKY-OH)", "values": [
      {"measurement": "INCREASE IN SYNTHESIS OF TYPE-I COLLAGEN", "result": 47.3, "unit": "%"}
    ]}
  ]
}
